{
  "source": "patent US20230050846A1",
  "about": "“TREATMENT OF HEPATIC AND CARDIOVASCULAR DISORDERS” (LIFESEARCH, priority 2019, published 2023)",
  "key": {"[1]": {"system": "wild-type C57B/L6J mice", "assay": "Femoral artery blood flow in conscious mice", "assay_type": "in vivo, mouse", "conditions": "data not shown", "text": "According to the protocol disclosed in [5], the peptide of formula (I) increased femoral artery blood flow in conscious wild-type C57B/L6J mice in a process that strictly depend on endothelial NO production (data not shown)."}, "[2]": {"system": "C57B/L6J mice fed CDAHFD", "assay": "CDAHFD diet-induced NASH associated hepatic fibrosis mouse model", "assay_type": "in vivo", "conditions": "sc infusion two weeks, 5 mg/kg BW/day", "experimental": "Wild-type C57B/L6J male mice were purchased from Janvier Labs (Le Genest Saint Isle, France). Mice were caged in animal rooms under specific pathogen free conditions at the animal facility of Rangueil (Anexplo platform, US006, Toulouse, France) with a light/dark schedule of 12 h/12 h. At the initiation of the dietary intervention, all animals were 8 weeks old and were fed ad libitum with a normal chow diet (#V1535 R/M-H, Ssniff, Germany). All animal experimental procedures were conducted in accordance with institutional guidelines on animal experimentation approved by the local ethical committee of animal care and are conformed to the guidelines from Directive 2010/63/EU of the European Parliament on the protection of animals used for scientific purposes or the NIH guideline.\n8 weeks old mice were fed for 6 week a choline-deficient, L-amino acid-defined, high-fat diet (CDAHFD #A06071302, Research Diet, USA) consisting of 60 kcal % fat and 0.1% methionine by weight. For the 2 last weeks of the 6-week period, a group of mice were implanted with an osmotic pump containing the peptide of formula (I). Briefly, 200 μL osmotic pump were filled with 10 mg/mL of the peptide of formula (I) in PBS and were implanted subcutaneously into the mice according to the manufacturer's instructions (Alzet®, model pump #2002), to insure the peptide of formula (I) release at an estimated rate of 0.5 μL/h, which corresponds to an estimated amount of delivery of 5 mg of the peptide of formula (I) per kilogram of body weight per day (5 mg/kg BW/day). The control group was composed of mice that underwent the same chirurgical procedure used for osmotic pump implantation (sham-operated mice).\nLiver histology. […] Fibrosis was assessed by Sirius Red staining. […]\nHepatic hydroxyproline was determined by hydrolizing 80-140 mg liver in a 6N HCl solution, overnight, at 110 degrees Celsius. […] Absorbance was measured at 550 nm and the results are expressed as micrograms of hepatic hydroxyproline per mg tissue."}},
  "data": [
    {"substance": "Ac-RGAGSIREAGGAFGKREQAEEERYFRAQSRE-NH2 [peptide of formula (I), CH3CO-[SEQ ID NO: 1]-NH2]", "values": [
      {"measurement": "femoral artery blood flow", "setting": "[1]", "result": "increased"},
      {"measurement": "collagen deposition (Sirius Red staining)", "setting": "[2]; p<0.01 vs sham-operated mice", "result": "less collagen deposition"},
      {"measurement": "decrease in the concentration of hydroxyproline content per milligram of liver", "setting": "[2]; p<0.05 vs sham-operated mice", "result": "more than 35%"},
      {"measurement": "CDAHFD diet-induced increase of hepatic fibrosis", "setting": "[2]; vs sham-operated mice", "result": "significantly attenuated"}
    ]}
  ]
}
